Results taken from patent US20260098053A1, “COMPOSITIONS AND METHODS FOR TREATING CNS DISORDERS” (SAGE THERAPEUTICS, INC., priority 2019, published 2026).
pIC50: −log10 of the molar value.

Each compound was assayed against [35S]-TBPS binding, rat brain cortical membranes (assay: Steroid inhibition of [35S]-TBPS binding). Conditions: Table 4, 3 nM [35S]-TBPS, in the presence of 5 mM GABA, read-out: TBPS IC50.
Experimental: [35S]-t-Butylbicyclophosphorothionate (TBPS) binding assays using rat brain cortical membranes in the presence of 5 mM GABA has been described (Gee et al, J. Pharmacol. Exp. Ther. 1987, 241, 346-353; Hawkinson et al, Mol. Pharmacol. 1994, 46, 977-985; Lewin, A. H et al., Mol. Pharmacol. 1989, 35, 189-194).
Briefly, cortices are rapidly removed following decapitation of carbon dioxide-anesthetized Sprague-Dawley rats (200-250 g). The cortices are homogenized in 10 volumes of ice-cold 0.32 M sucrose using a glass/teflon homogenizer and centrifuged at 1500×g for 10 min at 4° C. The resultant supernatants are centrifuged at 10,000×g for 20 min at 4° C. to obtain the P2 pellets. The P2 pellets are resuspended in 200 mM NaCl/50 mM Na—K phosphate pH 7.4 buffer and centrifuged at 10,000×g for 10 min at 4° C. This washing procedure is repeated twice and the pellets are resuspended in 10 volumes of buffer. Aliquots ([…]) of the membrane suspensions are incubated with 3 nM [^35S]-TBPS and […] aliquots of test drug dissolved in dimethyl sulfoxide (DMSO) (final 0.5%) in the presence of 5 mM GABA. The incubation is brought to a final volume of 1.0 mL with buffer. Nonspecific binding is determined in the presence of […] and ranged from 15 to 25%. Following a 90 min incubation at room temp, the assays are terminated by filtration through glass fiber filters (Schleicher and Schuell No. 32) using a cell harvester (Brandel) and rinsed three times with ice-cold buffer. Filter bound radioactivity is measured by liquid scintillation spectrometry. Non-linear curve fitting of the overall data for each drug averaged for each concentration is done using Prism (GraphPad). […] The concentration of test compound producing 50% inhibition (IC50) of specific binding and the maximal extent of inhibition (Imax) are determined for the individual experiments with the same model used for the overall data and then the means±SEM.s of the individual experiments are calculated.
Various compounds are or can be screened to determine their potential as modulators of [^35S]-TBPS binding in vitro. These assays are or can be performed in accordance with the above

| Compound | pIC50 |
| --- | --- |
| COC[C@]1(O)CC[C@@H]2CC[C@@H]3[C@H](CC[C@]4(C)[C@@H](C(=O)Cn5cc(C#N)cn5)CCC[C@@H]34)[C@@]2(C)CC1 [Example 56, 1-(2-((1S,4aS,4bR,6aS,9S,11aS,11bS,13aS)-9-hydroxy-9-(methoxymethyl)-11a,13a-dimethyloctadecahydro-1H-cyclohepta[a]phenanthren-1-yl)-2-oxoethyl)-1H-pyrazole-4-carbonitrile] | 6.00 to 7.00 |
| C[C@]1(O)CC[C@H]2CC[C@@H]3[C@H](CC[C@]4(C)[C@@H](C(=O)Cn5cc(C#N)cn5)CCC[C@@H]34)[C@@]2(C)CC1 [Example 52, 1-(2-((1S,4aS,4bR,6aR,9S,11aS,11bS,13aS)-9-hydroxy-9,11a,13a-trimethyloctadecahydro-1H-cyclohepta[a]phenanthren-1-yl)-2-oxoethyl)-1H-pyrazole-4-carbonitrile] | 6.00 to 7.00 |
| C[C@@]1(O)CCC[C@@]2(C)[C@@H](CC[C@@H]3[C@@H]2CC[C@]2(C)[C@@H](C(=O)CCn4cc(C#N)cn4)CCC[C@@H]32)C1 [Example 41, 1-(3-((1S,4aS,4bR,6aS,8R,11aS,11bS,13aS)-8-hydroxy-8,11a,13a-trimethyloctadecahydro-1H-cyclohepta[a]phenanthren-1-yl)-3-oxopropyl)-1H-pyrazole-4-carbonitrile] | > 7.00 |
| COC[C@]1(O)CC[C@H]2CC[C@@H]3[C@H](CC[C@]4(C)[C@@H](C(=O)Cn5cc(C#N)cn5)CCC[C@@H]34)[C@@]2(C)CC1 [Example 55, 1-(2-((1S,4aS,4bR,6aR,9S,11aS,11bS,13aS)-9-hydroxy-9-(methoxymethyl)-11a,13a-dimethyloctadecahydro-1H-cyclohepta[a]phenanthren-1-yl)-2-oxoethyl)-1H-pyrazole-4-carbonitrile] | 6.00 to 7.00 |
| Cc1nnnn1CC(=O)[C@H]1CCC[C@H]2[C@@H]3CC[C@@H]4C[C@](C)(O)CCC[C@@H]4[C@H]3CC[C@]12C [Example 12, 1-((1S,4aS,4bR,6aR,8R,11aS,11bR,13aS)-8-hydroxy-8,13a-dimethyloctadecahydro-1H-cyclohepta[a]phenanthren-1-yl)-2-(5-methyl-1H-tetrazol-1-yl)ethan-1-one] | > 7.00 |
| C[C@]1(O)CC[C@@H]2CC[C@@H]3[C@H](CC[C@]4(C)[C@@H](C(=O)CCn5cc(C#N)cn5)CCC[C@@H]34)[C@@]2(C)CC1 [Example 54, 1-(3-((1S,4aS,4bR,6aS,9S,11aS,11bS,13aS)-9-hydroxy-9,11a,13a-trimethyloctadecahydro-1H-cyclohepta[a]phenanthren-1-yl)-3-oxopropyl)-1H-pyrazole-4-carbonitrile] | 6.00 to 7.00 |
| C[C@]1(O)CC[C@@H]2CC[C@@H]3[C@H](CC[C@]4(C)[C@@H](C(=O)Cn5cc(C#N)cn5)CCC[C@@H]34)[C@@]2(C)CC1 [Example 44, 1-(2-((1S,4aS,4bR,6aS,9S,11aS,11bS,13aS)-9-hydroxy-9,11a,13a-trimethyloctadecahydro-1H-cyclohepta[a]phenanthren-1-yl)-2-oxoethyl)-1H-pyrazole-4-carbonitrile] | 6.00 to 7.00 |
| CC[C@]12CC[C@@](C)(O)C[C@H]1CC[C@H]1[C@@H]3CCCC[C@@H](C(C)=O)[C@@]3(C)CC[C@@H]12 [Example 23, 1-((2R,4aS,4bS,6aS,7R,11aS,11bS,13aR)-4a-ethyl-2-hydroxy-2,6a-dimethyloctadecahydro-1H-cyclohepta[a]phenanthren-7-yl)ethanone] | 6.00 to 7.00 |
| CC(=O)[C@H]1CCC[C@H]2[C@@H]3CC[C@@H]4C[C@](C)(O)CCC[C@]4(C)[C@H]3CC[C@]12C [Example 15, 1-((1S,4aS,4bR,6aR,8R,11aS,11bS,13aS)-8-hydroxy-8,11a,13a-trimethyloctadecahydro-1H-cyclohepta[a]phenanthren-1-yl)ethan-1-one] | > 7.00 |
| COC[C@]1(O)CC[C@H]2CC[C@@H]3[C@H](CC[C@]4(C)[C@@H](C(=O)Cn5cc(C#N)cn5)CCC[C@@H]34)[C@H]2CC1 [Example 46, 1-(2-((1S,4aS,4bR,6aR,9S,11aS,11bR,13aS)-9-hydroxy-9-(methoxymethyl)-13a-methyloctadecahydro-1H-cyclohepta[a]phenanthren-1-yl)-2-oxoethyl)-1H-pyrazole-4-carbonitrile] | 6.00 to 7.00 |
| CC[C@@]1(O)CCC[C@H]2[C@H](CC[C@@H]3[C@@H]2CC[C@]2(C)[C@@H](C(=O)Cn4cc(C#N)cn4)CCC[C@@H]32)C1 [Example 14, 1-(2-((1S,4aS,4bR,6aR,8R,11aS,11bR,13aS)-8-ethyl-8-hydroxy-13a-methyloctadecahydro-1H-cyclohepta[a]phenanthren-1-yl)-2-oxoethyl)-1H-pyrazole-4-carbonitrile] | 6.00 to 7.00 |
| CC[C@]12CC[C@@](C)(O)C[C@H]1CC[C@H]1[C@@H]3CCCC[C@H](C(C)=O)[C@@]3(C)CC[C@@H]12 [Example 22] | > 7.00 |
| CC[C@]12CCCC(C)(O)C[C@H]1CC[C@H]1[C@@H]3CC[C@H](C(=O)Cn4cc(C#N)cn4)[C@@]3(C)CC[C@@H]12 (stereo in doubt) [Example 20, 1-(2-((1S,3aS,3bS,5aR,7S,10aS,10bS,12aS)-10a-ethyl-7-hydroxy-7,12a-dimethyloctadecahydrocyclohepta[a]cyclopenta[f]naphthalen-1-yl)-2-oxoethyl)-1H-pyrazole-4-carbonitrile] | > 7.00 |
| CC[C@]12CC[C@@](C)(O)C[C@H]1CC[C@H]1[C@@H]3CCCC[C@H](C(=O)Cn4cc(C#N)cn4)[C@@]3(C)CC[C@@H]12 [Example 24] | > 7.00 |

Same assay, conditions: Table 5, 3 nM [35S]-TBPS, in the presence of 5 mM GABA, read-out: TBPS IC50

| Compound | pIC50 |
| --- | --- |
| C[C@@]1(O)CC[C@H]2[C@H](CC[C@@H]3[C@@H]2CC[C@H]2[C@H]3CCC[C@@H]2C(=O)Cn2cc(C#N)cn2)C1 [Example 78, 1-(2-((1S,4aS,4bR,6aR,8R,10aS,10bR,12aS)-8-hydroxy-8-methyloctadecahydrochrysen-1-yl)-2-oxoethyl)-1H-pyrazole-4-carbonitrile] | > 7.00 |
| Cc1nnnn1CC(=O)[C@H]1CCC[C@H]2[C@@H]3CC[C@H]4C[C@](C)(O)CC[C@@H]4[C@H]3CC[C@@H]21 [Example 81, 1-((1S,4aS,4bR,6aS,8R,10aS,10bR,12aS)-8-hydroxy-8-methyloctadecahydrochrysen-1-yl)-2-(5-methyl-1H-tetrazol-1-yl)ethanone] | > 7.00 |
| Cc1nnn(CC(=O)[C@H]2CCC[C@H]3[C@@H]4CC[C@H]5C[C@](C)(O)CC[C@@H]5[C@H]4CC[C@@H]32)n1 [Example 80, 1-((1S,4aS,4bR,6aS,8R,10aS,10bR,12aS)-8-hydroxy-8-methyloctadecahydrochrysen-1-yl)-2-(5-methyl-2H-tetrazol-2-yl)ethanone] | > 7.00 |
| Cc1nnn(CC(=O)[C@H]2CC[C@H]3[C@@H]4CC[C@@H]5C[C@](C)(O)CC[C@@H]5[C@H]4CC[C@@H]32)n1 [Example 69, 1-((3R,5R,8R,9R,10S,13S,14S,17S)-3-hydroxy-3-methylhexadecahydro-1H-cyclopenta[a]phenanthren-17-yl)-2-(5-methyl-2H-tetrazol-2-yl)ethan-1-one] | > 7.00 |
| CC(=O)[C@H]1CC[C@H]2[C@@H]3CC[C@@H]4C[C@](C)(O)CC[C@@H]4[C@H]3CC[C@@H]21 [Example 66] | > 7.00 |
| CC(=O)[C@H]1CCC[C@H]2[C@@H]3CC[C@@H]4C[C@](C)(O)CC[C@@H]4[C@H]3CC[C@@H]21 [Example 77, 1-((1S,4aS,4bR,6aR,8R,10aS,10bR,12aS)-8-hydroxy-8-methyloctadecahydrochrysen-1-yl)-ethanone] | > 7.00 |
| Cc1nnn(CC(=O)[C@H]2CC[C@H]3[C@@H]4CC[C@H]5C[C@](C)(O)CC[C@@H]5[C@H]4CC[C@@H]32)n1 [Example 73, 1-((3R,5S,8R,9R,10S,13S,14S,17S)-3-hydroxy-3-methylhexadecahydro-1H-cyclopenta[a]phenanthren-17-yl)-2-(5-methyl-2H-tetrazol-2-yl)ethanone] | < 6.00 |

Same assay, conditions: Table 6, 3 nM [35S]-TBPS, in the presence of 5 mM GABA, read-out: IC50

| Compound | pIC50 |
| --- | --- |
| C[C@@]1(O)CC[C@@]2(C3CC3)[C@H](CC[C@H]3[C@@H]4CCC[C@H](C(=O)Cn5cc(C#N)cn5)[C@@]4(C)CC[C@@H]32)C1 [Example 87, 1-(2-((1S,4aS,4bS,6aR,8R,10aR,10bS,12aS)-10a-cyclopropyl-8-hydroxy-8,12a-dimethyloctadecahydrochrysen-1-yl)-2-oxoethyl)-1H-pyrazole-4-carbonitrile] | > 7.00 |
